Reference: patent US20250144442A1, “LIGHT-GUIDING ADHESIVE PATCH” (SAMSUNG LIFE PUBLIC WELFARE FOUNDATION, priority 2023, published 2025)

Tested on: malignant glioma U87 cell line
Assay: WST-1 cell viability assay for PDT anti-cancer effectiveness
Format: cell-based
Details: 50 μM Hypericin, 2 hours incubation at 37° C., U87 cells, no simultaneous light; FIG. 11a
Protocol: To maximize light transmission, a 530±15 nm LED was used to verify the improvement in PDT efficiency with a developed light-guiding adhesive patch using the malignant glioma U87 cell line.
Specifically, the anti-cancer effectiveness through PDT was verified using the WST-1 cell viability assay. During the PDT efficiency verification, initial tests were conducted to establish PDT conditions, investigating the toxicity of the photosensitizer and light exposure.

For Cc1cc(O)c2c(=O)c3c(O)cc(O)c4c5c(O)cc(O)c6c(=O)c7c(O)cc(C)c8c1c2c(c34)c(c78)c65 [Hypericin], the “inhibition of cell viability (toxicity of the photosensitizer)” value was “No specific inhibition of cell viability”.
